Legend:
[1] = molecular target: T1, Vanin-1 in SUIT-S2 cell line (Homo sapiens, UniProt O95497); test: Vanin-1 cell-based mechanistic assay (fluorescence intensity, Pantothenate-AMC substrate); details: 40000 cells per well, 2 hours incubation at 37° C., Pantothenate-AMC 30 μM, 30 min
T1 construct: endogenous in cells; host or cells: SUIT-S2 cell line (ATCC # CRL1596)
T1 sequence (O95497 22-491): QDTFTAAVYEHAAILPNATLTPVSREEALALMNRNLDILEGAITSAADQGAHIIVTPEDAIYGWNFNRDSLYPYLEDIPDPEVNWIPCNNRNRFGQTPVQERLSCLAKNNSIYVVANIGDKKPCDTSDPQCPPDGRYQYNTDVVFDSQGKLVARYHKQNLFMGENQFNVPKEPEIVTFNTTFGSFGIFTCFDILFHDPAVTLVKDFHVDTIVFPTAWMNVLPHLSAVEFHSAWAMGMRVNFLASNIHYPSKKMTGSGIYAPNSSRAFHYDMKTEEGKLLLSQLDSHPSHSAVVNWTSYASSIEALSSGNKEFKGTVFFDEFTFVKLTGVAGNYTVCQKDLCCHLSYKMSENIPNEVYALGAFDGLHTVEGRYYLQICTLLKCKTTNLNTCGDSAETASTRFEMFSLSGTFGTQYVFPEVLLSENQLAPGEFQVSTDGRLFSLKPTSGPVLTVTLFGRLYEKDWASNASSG
Description: Vanin-1 Cell-Based Mechanistic Assay:
The cellular activity of the examples is measured in 96-well format based on fluorescence intensity assay using SUIT-S2 cell line (ATCC # CRL1596).
Cells are cultured at 37° C. with 5% CO2 to 80-90% confluence and then washed once with phosphate-buffered saline (PBS). Adherent cells are detached with PBS-EDTA and once in suspension 40000 cells are dispensed in 90 μl of PBS in 96-well black plates with clear bottoms. Threefold serial dilutions of test compounds are made in DMSO and then solubilized in PBS, dilution range 1:30. Cells and serial diluted test compounds (final concentrations 10 μM to 4.6 nM) or controls (PBS/0.3% DMSO) are incubated for 2 hours at 37° C. with 5% CO2. The reaction is initiated by the addition of the fluorogenic substrate, Pantothenate-AMC, at a concentration of 30 μM. After 30 minutes of incubation at 30° C. with gentle agitation, fluorescence intensity is measured at λex=350 nm and λem=450 nm with a fluorescence reader (BMG PHERAstar reader or equivalent).

[2] = molecular target: T2, Human recombinant Vanin-1 (VNN1) (Homo sapiens, UniProt O95497); test: Vanin-1 enzymatic assay (fluorescence intensity, Pantothenate-AMC substrate); assay type: biochemical; details: purified recombinant human Vanin-1 0.5 nM; 30 min preincubation at 30° C.; Pantothenate-AMC 30 μM, 60 min
T2 construct: purchased Sino Biological Inc. 11662-H08H
T2 sequence (O95497 22-491): T1 sequence (O95497 22-491)
Description: Human recombinant Vanin-1 (VNN1) was purchased from Sino Biological Inc. (Catalog Number: 11662-H08H).
Measurement of VNN1 inhibition is performed in 384-well format based on fluorescence intensity assay. Purified recombinant human Vanin-1 (0.5 nM) and threefold serial diluted compounds in 3% DMSO (range of concentrations from 30 μM to 1.524 nM) or controls (3.0% DMSO) are incubated for 30 minutes at 30° C. with gentle agitation in assay buffer containing 100 mM potassium Phosphate Buffer (KPi), pH 7.5, 0.001% Bovine Serum Albumin (BSA), 0.5 mM dithiothreitol (DTT) and 0.0025% Brij-35. The reaction is initiated by the addition of the fluorogenic substrate, Pantothenate-AMC, at a concentration of 30 μM. After 60 minutes of incubation at 30° C. with gentle agitation, fluorescence intensity is measured at λex=350 nm and λem=450 nm with a fluorescence reader (BMG PHERAstar reader or equivalent).

SMILES	IC50 [1] [nM]	IC50 [2] [nM]
CC(C)(CO)[C@@H](O)C(=O)NCCC(=O)C(=O)NCc1ccccc1 [Example 9, (R)—N-(3-Benzylcarbamoyl-3-oxo-propyl)-2,4-dihydroxy-3,3-dimethyl-butyramide]	30	40
CC(C)(CO)[C@@H](O)C(=O)NCCC(=O)C(=O)NCc1ccccc1F [Example 10, (R)—N-[3-(2-Fluoro-benzylcarbamoyl)-3-oxo-propyl]-2,4-dihydroxy-3,3-dimethyl-butyramide]	25	30
CC(C)(CO)[C@@H](O)C(=O)NCCC(=O)C(=O)NCc1cccc(OC(F)(F)F)c1 [Example 15, (R)-2,4-Dihydroxy-3,3-dimethyl-N-[3-oxo-3-(3-trifluoromethoxy-benzylcarbamoyl)-propyl]-butyramide]	140	50
CC(C)(CO)[C@@H](O)C(=O)NCCC(=O)C(=O)NCc1ccc(F)cc1 [Example 17, (R)—N-[3-(4-Fluoro-benzylcarbamoyl)-3-oxo-propyl]-2,4-dihydroxy-3,3-dimethyl-butyramide]	20	30
CC(C)(CO)[C@@H](O)C(=O)NCCC(=O)C(=O)NCc1cccc2ccccc12 [Example 19, (R)-2,4-Dihydroxy-3,3-dimethyl-N-{3-[(naphthalen-1-ylmethyl)-carbamoyl]-3-oxo-propyl}-butyramide]	50	30
COc1cccc(CNC(=O)C(=O)CCNC(=O)[C@H](O)C(C)(C)CO)c1 [Example 22, (R)-2,4-Dihydroxy-N-[3-(3-methoxy-benzylcarbamoyl)-3-oxo-propyl]-3,3-dimethyl-butyramide]	30	60
CC(C)(CO)[C@@H](O)C(=O)NCCC(=O)C(=O)NCc1ccccc1C(F)(F)F [Example 23, (R)-2,4-Dihydroxy-3,3-dimethyl-N-[3-oxo-3-(2-trifluoromethyl-benzylcarbamoyl)-propyl]-butyramide]	50	70
CC(C)(CO)[C@@H](O)C(=O)NCCC(=O)C(=O)NCc1ccc(S(C)(=O)=O)cc1 [Example 24, (R)-2,4-Dihydroxy-N-[3-(4-methanesulfonyl-benzylcarbamoyl)-3-oxo-propyl]-3,3-dimethyl-butyramide]	< 10	10
CC(C)(CO)[C@@H](O)C(=O)NCCC(=O)C(=O)NCc1cccc(OCCNS(C)(=O)=O)c1 [Example 26, (R)-2,4-Dihydroxy-N-{3-[3-(2-methanesulfonylamino-ethoxy)-benzylcarbamoyl]-3-oxo-propyl}-3,3-dimethyl-butyramide]	260	380
CC(C)(CO)[C@@H](O)C(=O)NCCC(=O)C(=O)NCc1ccc(-c2ccccc2)cc1 [Example 28, (R)—N-{3-[(Biphenyl-4-ylmethyl)-carbamoyl]-3-oxo-propyl}-2,4-dihydroxy-3,3-dimethyl-butyramide]	100	20
CC(C)(CO)[C@@H](O)C(=O)NCCC(=O)C(=O)NCc1ccc(Br)cc1 [Example 31, (R)—N-[3-(4-Bromo-benzylcarbamoyl)-3-oxo-propyl]-2,4-dihydroxy-3,3-dimethyl-butyramide]	10	< 10
CC(C)(CO)[C@@H](O)C(=O)NCCC(=O)C(=O)NCc1ccc(C(=O)NCCc2ccc(Oc3ccccc3)cc2)cc1 [Example 32, 4-{[4-((R)-2,4-Dihydroxy-3,3-dimethyl-butrylamino)-2-oxo-butyrylamino]-methyl)-N-[2-(4-phenoxy-phenyl)-ethyl]-benzamide]	< 10	< 10
CC(C)(CO)[C@@H](O)C(=O)NCCC(=O)C(=O)NCc1ccc(S(=O)(=O)N2CCCCC2)cc1 [Example 33, (R)-2,4-Dihydroxy-3,3-dimethyl-N-{3-oxo-3-[4-(piperidine-1-sulfonyl)-benzylcarbamoyl]-propyl}-butyramide]	< 10	< 10
CC(C)(CO)[C@@H](O)C(=O)NCCC(=O)C(=O)NCc1ccc(-c2ccc(C(=O)O)cc2)cc1 [Example 55, 4′-{[4-((R)-2,4-Dihydroxy-3,3-dimethyl-butyrylamino)-2-oxo-butyrylamino]-methyl}-biphenyl-4-carboxylic acid]		< 10
COC(=O)c1ccc(-c2ccc(CNC(=O)C(=O)CCNC(=O)[C@H](O)C(C)(C)CO)cc2)cc1 [Example 56, 4′-{[4-((R)-2,4-Dihydroxy-3,3-dimethyl-butyrylamino)-2-oxo-butyrylamino]-methyl}-biphenyl-4-carboxylic acid methyl ester]		10
CC(C)(CO)[C@@H](O)C(=O)NCCN(CCOc1ccccc1)C(=O)CCl [Example 63, (R)—N-{2-[(2-Chloro-acetyl)-(2-phenoxy-ethyl)-amino]-ethyl}-2,4-dihydroxy-3,3-dimethyl-butyramide]		3550
CC(C)(CO)[C@@H](O)C(=O)NCCN(CCOc1ccc(S(C)(=O)=O)cc1)C(=O)CCl [Example 64, (R)—N-(2-{(2-Chloro-acetyl)-[2-(4-methanesulfonyl-phenoxy)-ethyl]-amino}-ethyl)-2,4-dihydroxy-3,3-dimethyl-butyramide]		3440
COC(=O)c1ccc(OCCN(CCNC(=O)[C@H](O)C(C)(C)CO)C(=O)CCl)cc1 [Example 65, 4-(2-{(2-Chloro-acetyl)-[2-((R)-2,4-dihydroxy-3,3-dimethyl-butyrylamino)-ethyl]-amino}-ethoxy)-benzoic acid methyl ester]		3990
CC(C)(CO)[C@@H](O)C(=O)NCCN(CCOc1ccc(Br)cc1)C(=O)CCl [Example 66]		2870

Other lines, results leading:

IC50 [1] [nM]	IC50 [2] [nM]	SMILES
1270	9250	C=CC(=O)CCNC(=O)[C@H](O)C(C)(C)CO [Example 3, (R)-2,4-Dihydroxy-3,3-dimethyl-N-(3-oxo-pent-4-enyl)-butyramide]
1190	2010	CC(C)(CO)[C@@H](O)C(=O)NCCC(=O)/C=C/Cc1ccccc1 [Example 4, (R)-2,4-Dihydroxy-3,3-dimethyl-N-((E)-3-oxo-6-phenyl-hex-4-enyl)-butyramide]
3200	3310	CC(=O)/C=C/CCNC(=O)[C@H](O)C(C)(C)CO [Example 5, (R)-2,4-Dihydroxy-3,3-dimethyl-N-((E)-5-oxo-hex-3-enyl)-butyramide]
670	5790	CC(C)(CO)[C@@H](O)C(=O)NCC/C=C/C(=O)CCc1ccccc1 [Example 6]
1490	830	CC(C)(CO)[C@@H](O)C(=O)NCCC(=O)C(N)=O [Example 7, (R)—N-(3-Carbamoyl-3-oxo-propyl)-2,4-dihydroxy-3,3-dimethyl-butyramide]
3540	1680	CC(C)(CO)[C@@H](O)C(=O)NCCC(=O)C(=O)NC1CC1 [Example 8, (R)—N-(3-Cyclopropylcarbamoyl-3-oxo-propyl)-2,4-dihydroxy-3,3-dimethyl-butyramide]
73	30	CC(C)(CO)[C@@H](O)C(=O)NCCC(=O)C(=O)NCC1CCCCC1 [Example 11, (R)—N-[3-(Cyclohexylmethyl-carbamoyl)-3-oxo-propyl]-2,4-dihydroxy-3,3-dimethyl-butyramide]
90	50	CC(C)(CO)[C@@H](O)C(=O)NCCC(=O)C(=O)NCCc1cccs1 [Example 14, (R)-2,4-Dihydroxy-3,3-dimethyl-N-[3-oxo-3-(2-thiophen-2-yl-ethylcarbamoyl)-propyl]-butyramide]

From patent US9585891B2 (MERCK PATENT GMBH, priority 2012, dated 2017)
